Assay results from patent US20220089592A1, “IMIDAZO[1,2-A]PYRIDINYL DERIVATIVES AS IRAK4 INHIBITORS” (priority 2019, published 2022).
Where a name gives a salt, the structure may show the parent alone.

What was measured:
IRAK4 [1] = target: T1, IRAK4 (Homo sapiens, UniProt Q9NWZ3); test: 2-hour 10 μM ATP Biochemical Assay (MesoScale Detection format; IRAK4 phosphorylation of biotin labeled IRAK1 activation loop peptide); conditions: IRAK4 MSD BIOCHEMICAL (10 μM ATP) IC50 (μM), 1 nM IRAK4, 2 hours
T1 sequence (Q9NWZ3 1-460): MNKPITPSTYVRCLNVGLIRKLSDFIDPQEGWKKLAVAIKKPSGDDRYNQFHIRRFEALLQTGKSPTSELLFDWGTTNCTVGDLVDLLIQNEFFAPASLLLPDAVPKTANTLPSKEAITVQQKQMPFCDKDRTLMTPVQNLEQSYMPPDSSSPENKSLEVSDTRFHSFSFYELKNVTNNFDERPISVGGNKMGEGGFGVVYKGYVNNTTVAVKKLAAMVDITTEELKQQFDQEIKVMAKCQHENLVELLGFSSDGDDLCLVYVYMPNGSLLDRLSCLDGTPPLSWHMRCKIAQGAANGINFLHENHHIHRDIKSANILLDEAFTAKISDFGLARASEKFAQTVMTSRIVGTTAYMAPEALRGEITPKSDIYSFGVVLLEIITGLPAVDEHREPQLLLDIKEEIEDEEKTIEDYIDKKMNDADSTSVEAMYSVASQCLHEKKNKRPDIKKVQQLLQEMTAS
In short: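 Kinase reaction run 2 h at 10 μM ATP with biotinylated IRAK1 activation-loop peptide, quenched with EDTA. Phospho-peptide captured on streptavidin MSD plates and detected with anti-phosphothreonine rabbit antibody plus Sulfo-Tag anti-rabbit electrochemiluminescence.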

IRAK4 [2] = target: T1, IRAK4; test: 2-hour 1 mM ATP IRAK4 Biochemical assay (as above, but with 100 pM IRAK4 and 1 mM ATP); conditions: IRAK4 MSD BIOCHEMICAL (1 mM ATP) IC50 (μM), 100 pM IRAK4, 2 hours
In short: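 Run with 100 pM IRAK4 and 1 mM ATP for 2 hours, quenched with EDTA pH 8. Phosphorylated biotinylated peptide captured on streptavidin MSD plates and detected with anti-phosphothreonine antibody plus Sulfo-Tag secondary by electrochemiluminescence.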

| SMILES | IC50 (IRAK4 [1]) [µM] | IC50 (IRAK4 [2]) [µM] |
| --- | --- | --- |
| CCOc1cc2nc(C3CCN(C(C)=O)CC3)cn2cc1NC(=O)c1cccc(C(F)(F)F)n1 [Example 72, N-(2-(1-acetylpiperidin-4-yl)-7-ethoxyimidazo[1,2-a]pyridin-6-yl)-6-(trifluoromethyl)picolinamide] | 0.001 | 0.001 |
| CCOc1cc2nc(C3CCOCC3)cn2cc1NC(=O)c1ccn(C2CC2(F)F)n1 (stereo not drawn) [Example 209, 1-(2,2-difluorocyclopropyl)-N-(7-ethoxy-2-(tetrahydro-2H-pyran-4-yl)imidazo[1,2-a]pyridin-6-yl)-1H-pyrazole-3-carboxamide] | 0.005 | 0.009 |
| CCOc1cc2nc(C3CCOCC3)cn2cc1NC(=O)c1cccc(OCCOC)n1 [Example 516, N-(7-ethoxy-2-(tetrahydro-2H-pyran-4-yl)imidazo[1,2-a]pyridin-6-yl)-6-(2-methoxyethoxy)picolinamide] | 0.007 | 0.034 |
| COc1nc(NC(=O)c2ccn(C)n2)cn2cc(C3CCOCC3)nc12 [Example 461, N-(8-methoxy-2-(tetrahydro-2H-pyran-4-yl)imidazo[1,2-a]pyrazin-6-yl)-1-methyl-1H-pyrazole-3-carboxamide Hydrochloride] | 0.033 | 0.148 |
| CCOc1cc2nc(CF)cn2cc1NC(=O)c1cccc(C(F)(F)F)n1 [Example 20, N-(7-ethoxy-2-(fluoromethyl)imidazo[1,2-a]pyridin-6-yl)-6-(trifluoromethyl)picolinamide] | 0.003 | 0.006 |
| CCOc1nc2nc(C3CC3)cn2cc1NC(=O)c1cccc(C(F)F)n1 [Example 243, N-(2-cyclopropyl-7-ethoxyimidazo[1,2-a]pyrimidin-6-yl)-6-(difluoromethyl)picolinamide] | 0.003 | 0.014 |
| CCOc1cc2nc(CC(F)CO)cn2cc1NC(=O)c1cccc(C(F)F)n1 (stereo not drawn) [Example 99, 6-(difluoromethyl)-N-(7-ethoxy-2-(2-fluoro-3-hydroxypropyl)imidazo[1,2-a]pyridin-6-yl)picolinamide] | 0.002 | 0.004 |
| CCOc1cc(NC(=O)c2cccc(C(F)F)n2)cn2cc(C3CCOCC3)nc12 [Example 413, 6-(difluoromethyl)-N-(8-ethoxy-2-(tetrahydro-2H-pyran-4-yl)imidazo[1,2-a]pyridin-6-yl)picolinamide] | 0.005 | 0.015 |
| CCOc1cc2nc([C@@H](C)[C@@H]3CCOC3)cn2cc1NC(=O)c1cccc(C(F)(F)F)n1 (single isomer, unassigned) [Example 140] | 0.001 | 0.001 |
| O=C(Nc1cn2cc(C3CC3)nc2cc1OCC1CCC1)c1cccc(C(F)F)n1 [Example 5, N-(7-(cyclobutylmethoxy)-2-cyclopropylimidazo[1,2-a]pyridin-6-yl)-6-(difluoromethyl)picolinamide] | 0.003 | 0.003 |
| O=C(Nc1cn2cc(C3CC3)nc2cc1OCC1CC1)c1cccc(C(F)F)n1 [Example 25, N-(2-cyclopropyl-7-(cyclopropylmethoxy)imidazo[1,2-a]pyridin-6-yl)-6-(difluoromethyl)picolinamide] | 0.002 | 0.004 |
| CCOc1cc2nc(C3CCOCC3)cn2cc1NC(=O)c1ccn(C(F)F)n1 [Example 230, 1-(difluoromethyl)-N-(7-ethoxy-2-(tetrahydro-2H-pyran-4-yl)imidazo[1,2-a]pyridin-6-yl)-1H-pyrazole-3-carboxamide] | 0.001 | 0.003 |
| O=C(Nc1cn2cc(C3CC3)nc2cc1N1CCN(CC(F)F)CC1)c1cccc(C(F)(F)F)n1 [Example 24, N-(2-cyclopropyl-7-(4-(2,2-difluoroethyl)piperazin-1-yl)imidazo[1,2-a]pyridin-6-yl)-6-(trifluoromethyl)picolinamide] | 0.002 | 0.004 |
| CCOc1cc2nc(C3CC34CCOC4)cn2cc1NC(=O)c1cccc(C(F)F)n1 (mixture of isomers) [Example 171, 6-(difluoromethyl)-N-(7-ethoxy-2-(5-oxaspiro[2.4]heptan-1-yl)imidazo[1,2-a]pyridin-6-yl)picolinamide] | 0.002 | 0.004 |
| COc1nc(NC(=O)c2cccc(C(F)(F)F)n2)cn2cc(C3CCOCC3)nc12 [Example 451, N-(8-methoxy-2-(tetrahydro-2H-pyran-4-yl)imidazo[1,2-a]pyrazin-6-yl)-6-(trifluoromethyl)picolinamide 2,2,2-trifluoroacetate] | 0.029 | 0.066 |
| CCOc1cc2nc([C@H](C)[C@@H]3CCOC3)cn2cc1NC(=O)c1cccc(C(F)(F)F)n1 (single isomer, unassigned) [Example 138] | 0.001 | 0.001 |

| SMILES | IC50 (IRAK4 [1]) [µM] | IC50 (IRAK4 [2]) [µM] |
| --- | --- | --- |
| CCOc1cc2nc([C@H]3C[C@@H]3F)cn2cc1NC(=O)c1cccc(C(F)F)n1 (stereo in doubt) [Example 253, 6-(difluoromethyl)-N-(7-ethoxy-2-((1R*,2S*)-2-fluorocyclopropyl)imidazo[1,2-a]pyridin-6-yl)picolinamide] | 0.002 | 0.005 |
| CCOc1cc2nc(CC)cn2cc1NC(=O)c1cccc(NC(C)=O)n1 [Example 32, 6-acetamido-N-(7-ethoxy-2-ethylimidazo[1,2-a]pyridin-6-yl)picolinamide] | 0.064 |  |
| CCOc1cc2nc(C3CC3)c(F)n2cc1NC(=O)c1cccc(C(F)F)n1 [Example 29, N-(2-cyclopropyl-7-ethoxy-3-fluoroimidazo[1,2-a]pyridin-6-yl)-6-(difluoromethyl)picolinamide] | 0.023 |  |
| COc1cc(NC(=O)c2ccn(C)n2)cn2cc(C3CCOCC3)nc12 [Example 412, N-(8-methoxy-2-(tetrahydro-2H-pyran-4-yl)imidazo[1,2-a]pyridin-6-yl)-1-methyl-1H-pyrazole-3-carboxamide 2,2,2-trifluoroacetate] | 0.037 |  |
| CCOc1cc2nc(C(=O)N3CCOCC3)cn2cc1NC(=O)c1cccc(C(F)F)n1 [Example 126, 6-(difluoromethyl)-N-(7-ethoxy-2-(morpholine-4-carbonyl)imidazo[1,2-a]pyridin-6-yl)picolinamide] | 0.35 |  |
| COc1cc(NC(=O)c2cccc(C(F)F)n2)cn2cc(C3CC4CCC(C3)O4)nc12 (stereo not drawn) [Example 509, N-(2-(8-oxabicyclo[3.2.1]octan-3-yl)-8-methoxyimidazo[1,2-a]pyridin-6-yl)-6-(difluoromethyl)picolinamide 2,2,2-trifluoroacetate] | 0.002 |  |
| COc1cc(NC(=O)c2cccc(C(F)F)n2)cn2cc(C34CC(C#N)(C3)C4)nc12 [Example 511, N-(2-(3-cyanobicyclo[1.1.1]pentan-1-yl)-8-methoxyimidazo[1,2-a]pyridin-6-yl)-6-(difluoromethyl)picolinamide 2,2,2-trifluoroacetate] | 0.004 |  |
| CC(C)Oc1cc2nc(C3CCOCC3)cn2cc1NC(=O)c1cccc(C(F)F)n1 [Example 167, 6-(difluoromethyl)-N-(7-isopropoxy-2-(tetrahydro-2H-pyran-4-yl)imidazo[1,2-a]pyridin-6-yl)picolinamide] | 0.001 |  |
| CCOc1cc2nc(C3CCOCC3)cn2cc1NC(=O)c1ccnc(OC)n1 [Example 226, N-(7-ethoxy-2-(tetrahydro-2H-pyran-4-yl)imidazo[1,2-a]pyridin-6-yl)-2-methoxypyrimidine-4-carboxamide] | 0.035 |  |
| CCOc1cc2nc(CC)cn2cc1NC(=O)c1cc2n(n1)CCC2 [Example 38, N-(7-ethoxy-2-ethylimidazo[1,2-a]pyridin-6-yl)-5,6-dihydro-4H-pyrrolo[1,2-b]pyrazole-2-carboxamide] | 2.6 |  |
| CCOc1cc2nc(CC)cn2cc1NC(=O)c1ccc(F)c(C(F)(F)F)n1 [Example 51, N-(7-ethoxy-2-ethylimidazo[1,2-a]pyridin-6-yl)-5-fluoro-6-(trifluoromethyl)picolinamide] | 0.21 |  |
| CCOc1cc2nc(CC)cn2cc1NC(=O)c1cc(C)c(C)cn1 [Example 45, N-(7-ethoxy-2-ethylimidazo[1,2-a]pyridin-6-yl)-4,5-dimethylpicolinamide] | 2.3 |  |
| CCOc1cc2nc(C3CC3)cn2cc1NC(=O)c1cc2ncccn2n1 [Example 53, N-(2-cyclopropyl-7-ethoxyimidazo[1,2-a]pyridin-6-yl)pyrazolo[1,5-a]pyrimidine-2-carboxamide] | 0.11 |  |
| O=C(Nc1cn2cc(C3CCOCC3)nc2cc1OC1CCC1)c1cccc(C(F)F)n1 [Example 176, N-(7-cyclobutoxy-2-(tetrahydro-2H-pyran-4-yl)imidazo[1,2-a]pyridin-6-yl)-6-(difluoromethyl)picolinamide] | 0.001 |  |
| COc1cc(NC(=O)c2cccc(C(F)F)n2)cn2cc(CC3CCOCC3)nc12 [Example 506, 6-(difluoromethyl)-N-(8-methoxy-2-((tetrahydro-2H-pyran-4-yl)methyl)imidazo[1,2-a]pyridin-6-yl)picolinamide] | 0.004 |  |
